# US10933032B2, “Methods for the treatment of cancer using coenzyme Q10 combination therapies” (Berg LLC, priority 2013, dated 2021)
# Assays:
# Melanoma (Skmel 28) = experiment: Induction of early apoptosis (Bcl-2, annexin V, or caspase activation); format: cell-based; conditions: SKIN: Melanoma (Skmel 28)
# Description: (§1) The effects of Coenzyme Q10 treatment on a variety of oncogenic and normal cell lines were examined and compared. The sensitivity of cells to Coenzyme Q10 was assessed by monitoring induction of apoptosis. CoQ10 treatment of cells was carried out as described in detail below in the Materials and Methods. Induction of apoptosis was assessed in the treated cells by monitoring indicators of early apoptosis (e.g., Bcl-2 expression, caspase activation and by using annexin V assays) as described below. From these studies, the minimal CoQ10 dosage, e.g., concentration of CoQ10 and time of treatment, required to induce apoptosis in the panel of cell lines was determined.
# (§2) Cells were cultured in T-75 flasks with relevant medium supplemented with 10% Fetal Bovine Serum (FBS), 1% PSA (penicillin, streptomycin, amphotericin B) (Invitrogen and Cellgro) in a 37° C. incubator with 5% CO2 levels until 70-80% confluence was reached. To harvest cells for treatment, flasks were primed with 1 mL Trypsin, aspirated, trypsinized with an additional 3 mL, and incubated at 37° C. for 3-5 minutes. Cells were then neutralized with an equal volume of media and the subsequent solution was centrifuged at […] for 8 minutes. The supernatant was aspirated and the cells were resuspended with 8.5 ml of media. A mixture of 500 ul of the resuspension and 9.5 ml of […] was read twice by a coulter counter and the appropriate number of cells to be seeded into each dish was determined. Control and concentration ranging from 0-200 μM groups were examined in triplicate. From a 500 μM CoQ-10 stock solution, serial dilutions were performed to achieve desired experimental concentration in appropriate dishes. Dishes were incubated in a 37° C. incubator with 5% CO2 levels for 0-72 hours depending on cell type and experimental protocol.
# (§3) Following cell treatment incubation period was complete, protein isolation was performed. Dishes of all treatment groups were washed twice with 2 ml, and once with 1 ml of ice cold 1× Phosphate Buffered Saline (PBS). The PBS was aspirated from the dishes after the initial 2 washes only. Cells were gently scraped and collected into microcentrifuge tubes using the final volume from the third wash and centrifuged at 10,000 rpm for 10 minutes. After centrifugation, the supernatant was aspirated and the pellet was lysed with 50 uL of lysis buffer (1 uL of protease and phosphotase inhibitor for every 100 uL of lysis buffer). Samples were then frozen overnight at −20° C.
# (§4) After the cell treatment incubation period was complete, protein isolation was performed. Flasks of all treatment groups were washed twice with 5 mL, and once with 3 mL of ice cold 1×PBS. The PBS was aspirated from the flasks after the first 2 washes only. Cells were gently scraped and collected into 15 mL centrifuge tubes using the final volume from the third wash and centrifuged for at 10,000 rpm for 10 minutes. After centrifugation, the supernatant was aspirated and the pellet was lysed with an appropriate amount of lysis buffer (1 uL of protease and phosphotase inhibitor for every 100 uL of lysis buffer). Lysis buffer volume was dependent on pellet size. Samples were transferred in microcentrifuge tubes and frozen overnight at −20° C.
# (§5) Samples were thawed at […] and sonicated to ensure homogenization the day following protein isolation. Protein quantification was performed using the micro BCA protein assay kit (Pierce). To prepare samples for Immuno-blotting, a 1:19 solution of betamercaptoethanol (Sigma) to sample buffer (Bio-Rad) was prepared. Samples were diluted 1:1 with the betamercaptoethanol-sample buffer solution, boiled at 95° C. for 5 minutes, and frozen overnight at −20° C.
# (§6) The volume of sample to load per well was determined using the raw mean concentration of protein obtained from the BCA protein assay. Approximately 30-60 μg of protein were loaded for each treatment time point. […]
# Melanocytes (Hema, LP) = experiment: as above; format: cell-based; conditions: SKIN: Melanocytes (Hema, LP)
# Description: as §1, §2, §3, §4, §5, §6
compound,measurement,setting,value
"COC1=C(OC)C(=O)C(C/C=C(\C)CC/C=C(\C)CC/C=C(\C)CC/C=C(\C)CC/C=C(\C)CC/C=C(\C)CC/C=C(\C)CC/C=C(\C)CC/C=C(\C)CCC=C(C)C)=C(C)C1=O [CoQ10, Coenzyme Q10]","Indication of Early apoptosis (Bcl-2, annexin V, or caspase activation)",Melanoma (Skmel 28),Strong
same,"Minimal CoQ10 concentration required for induction of early apoptosis, Concentration",Melanoma (Skmel 28),20 µM
same,"Minimal treatment time required for induction of early apoptosis, Time",Melanoma (Skmel 28),24 h
same,"Indication of Early apoptosis (Bcl-2, annexin V, or caspase activation)","Melanocytes (Hema, LP)",None
